Like-named read-outs stand apart in the source and are kept apart here.
Tests used:
[1] = target: Photinus pyralis luciferase (Photinus pyralis, UniProt P08659); settings: compared to freshly prepared luciferase solution; 10% without DTT; cited from earlier work
[2] = target: T1, luciferase (Photinus pyralis, UniProt P08659); test: Light yield of the luciferin-luciferase reaction (luciferase detection, TopCount luminescence, 0-420 min); format: biochemical, firefly; settings: for final concentration up to which light yield increases: with 0.25 M phosphate
Description: A stock solution of 4.0 M Tris (source of ammonium ions) was neutralized with phosphoric acid (H3PO4) until a pH of 7.0 was reached. This stock buffer solution contained 2.0 M of phosphate. The stock solution was used to make a range of assay reagents comprising, respectively, 2.2, 1.1, 0.55, 0.275, 0.138, 0.069, 0.034 and 0.017 M Tris. The phosphate concentration in these assay reagents was […] phosphate, respectively.
Each reagent was checked for its pH to be 7.0 and was adjusted with small amounts of H3PO4 (several μl of a 2 M H3PO4 solution) if needed. The phosphate anions added in this manner had no significant effect on the above reported phosphate concentration. Each assay reagent was supplemented with D-luciferin, ATP and sodium-thiosulfate (Na2S2O3) by the addition of 250 μl of a freshly prepared stock solution (30 mM ATP, 3 mM D-luciferin, 100 mM thiosulfate adjusted to pH=7.0 with 1 M NaOH) to 2250 μl of assay reagent.
Luciferase was lyophilized in Dulbecco's-PBS with Mg and Ca (D'PBS^++) containing 0.05 g/ml trehalose and 0.016 g/ml BSA). Luciferase samples were prepared by reconstituting lyophilized luciferase in 200 μl water. The resulting solution was then diluted 100-fold by adding 150 μl of the reconstituted luciferase to 15 ml PBS (8.1 mM NaH2PO4, 1.5 mM KH2PO4, 2.7 mM KCl and 137 mM NaCl) containing 5 mM MgCl2, 5 mM CaCl2, 5 mM EDTA, 0.4% Thesit (a non-ionic detergent) and 0.1% bovine serum albumin (BSA). This yielded the “luciferase sample” solution which contained 27 ng/ml of luciferase.
The microplate was shaken for 10 seconds at 1100 rpm on a microplate-shaker and then immediately placed in a TopCount®-NXT Microplate Scintillation and Luminescence Counter. The resulting luminescent light signal was measured immediately after loading the microplate into the counter. The measurement was repeated after 5 and 10 minutes.
Final Tris concentrations in the different reaction mixtures were: 1.0, 0.5, 0.25, 0.125, 0.063, 0.031, 0.016 and 0.008 M. The phosphate concentrations were 0.5, 0.25, 0.125, 0.063, 0.031, 0.016, 0.008 and 0.004 M phosphate ions respectively. Final Mg^2+, D-luciferin, ATP, thiosulfate and luciferase concentrations in the reaction mixtures were 2.5 mM, 150 μM, 1.5 mM, 5 mM and 14 pg/μl, respectively.
FIG. 1 illustrates the effect of increasing Tris-phosphate concentrations in the luciferin-luciferase reaction mixture on the initial height and the decay of the light signal. To compare the total light yield (expressed as 10^9 counts) of each reaction mixture the areas under the curves were calculated by integrating the equations of the curves between 0 and 420 minutes. These equations of the curves were obtained using the option ‘trend line with equation’ of Microsoft Excel® software.
Stock solutions of 4.0 M ethanolamine (H2NCH2CH2OH) and 3.0 M ammonium-phosphate ((NH4)2HPO4) were neutralized with phosphoric acid (H3PO4) until pH 7.0 was reached. Dilutions were made in the same manner as described in example 1. Furthermore, all methods and other chemicals used to create the assay mixture and to test this for its light yield in a luciferin-luciferase reaction, were standardized and thus the same as in example 1. Final ethanolamine concentrations in the assay were 1.0, 0.5, 0.25, 0.125, 0.063, 0.031, 0.016 and 0.008 M, and 0.5, 0.25, 0.125, 0.063, 0.031, 0.016, 0.008 and 0.004 M phosphate, respectively. According to the present invention, a final concentration of 1M ethanolamine is assumed to provide the aqueous, neutral reaction mixture with 1M of ammonium ions. Thus, the concentration of ammonium ions in the reaction mixture is regarded to be identical to that of the source of ammonium ions. […]
Quantification of the reaction kinetics through surface area calculation under the curves is shown in Table 4 (ethanolamine-phosphate dilutions) and Table 5 (for ammonium-phosphate dilutions). […]
Target sequence in this assay (P08659 whole entry): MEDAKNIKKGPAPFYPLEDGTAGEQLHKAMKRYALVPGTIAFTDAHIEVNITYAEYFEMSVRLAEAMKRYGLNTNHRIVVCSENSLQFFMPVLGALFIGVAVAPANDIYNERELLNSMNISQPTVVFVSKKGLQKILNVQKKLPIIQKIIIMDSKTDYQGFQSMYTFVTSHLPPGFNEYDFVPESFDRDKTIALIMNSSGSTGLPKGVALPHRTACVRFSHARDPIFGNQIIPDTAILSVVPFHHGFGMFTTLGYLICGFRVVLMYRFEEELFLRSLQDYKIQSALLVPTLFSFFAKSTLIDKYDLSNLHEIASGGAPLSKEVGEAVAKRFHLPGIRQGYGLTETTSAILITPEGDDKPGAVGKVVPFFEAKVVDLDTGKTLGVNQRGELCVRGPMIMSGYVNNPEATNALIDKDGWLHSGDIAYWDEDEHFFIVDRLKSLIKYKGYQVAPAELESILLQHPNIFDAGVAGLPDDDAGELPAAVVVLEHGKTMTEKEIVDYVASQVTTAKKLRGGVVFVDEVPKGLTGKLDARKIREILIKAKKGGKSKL

[3] = cited from earlier work; for pKa (D/° C.): temperature coefficient of pKa, in brackets
[4] = target: T1, luciferase; settings: CoA in the assay reagent (U.S. Pat. No. 5,283,179); cited from earlier work
Target sequence in this assay (P08659 whole entry): as above

[5] = target: T1, luciferase; test: Light yield of the luciferin-luciferase reaction (luciferase detection, TopCount luminescence, 0-420 min); format: biochemical, firefly; settings: 0.5 mM reducing agent, 0.5 M Tris and 0.25 M phosphate
Target sequence in this assay (P08659 whole entry): as above

[6] = cited from earlier work
[7] = target: T1, luciferase; parameters: host or cells: eukaryotic cells (unspecified); settings: 1% detergent, chemical lysis of eukaryotic cells; cited from earlier work
Target sequence in this assay (P08659 whole entry, species assumed): as the sequence (P08659 whole entry) above

[8] = target: T1, luciferase; settings: luciferase assay, up to 100 mM Tris-phosphate, integral 1-420 minutes
Target sequence in this assay (P08659 whole entry): as above
Description: (§1) For this experiment 16 different reagent mixtures were prepared; 8 mixtures (for the ATP assay) contained a large amount of luciferase, a small amount of ATP and increasing Tris-phosphate concentrations and 8 mixtures (for the luciferase assay) contained a large amount of ATP, a small amount of luciferase and increasing amounts of Tris-phosphate. To reduce variances that might be introduced by small concentrations differences between the reagents, all reagents were made from the same stock solutions where possible.
A “luciferase sample” was prepared by reconstituting a lyophilized luciferase control sample (PerkinElmer Inc.) in H2O and diluting this in Dulbecco's PBS with Ca/Mg (D'PBS^++) to a 1.0×10^−7 g/l luciferase solution.
(§2) Likewise, in the same microplate the reaction kinetics when assaying for luciferase were measured by pipetting 100 μl of each Tris-phosphate concentration reagent with ATP, and adding 100 μl of “luciferase sample”.
(§3) The microplate was shaken for 10 seconds on a microplate-shaker and sealed with TopSeal-A™ (PerkinElmer Inc.). […] The luminescent light signal was immediately measured, meaning about 1 minute after mixing reagent and sample, and after 5 and 10 minutes. Hereafter the signal was measured repeatedly with 15 minute intervals to a total time of 420 minutes. […] The emitted light was quantified as counts per second (cps), count time 3 seconds per well.

[9] = target: T1, luciferase; settings: ATP assay, higher Tris-phosphate ion concentrations, integral 1-420 minutes
Target sequence in this assay (P08659 whole entry): as above
Description: as §1
An “ATP sample” was prepared by diluting a reconstituted lyophilized ATP standard (PerkinElmer Inc.) in D'PBS^++ resulting in a 1.0×10^−8 mM ATP solution.
as §2, §3

[10] = 5 mM reducing agent, 0.5 M Tris and 0.25 M phosphate

Chain of Photinus pyralis luciferase (P08659 whole entry): as above

## O[C@H](CS)[C@H](O)CS (racemic) [DTT, dithiothreitol]
[1]
  luciferase activity maintained in aged luciferase solution: 50%
[2]; [10]
  Light Yield: 167.5 10^9counts

## NC(=O)CNCCS(=O)(=O)O [ACES, N-(2-acetamido)-2-aminoethanesufonic acid]
[3]
  pKa at 20° C.: 6.88
  pKa (D/° C.): −0.020 D/° C.

## NC(=O)CN(CC(=O)O)CC(=O)O [ADA, N-(2-acetamido)iminodiacetic acid]
[3]
  pKa (D/° C.): −0.011 D/° C.

## N.N.N.O=P(O)(O)O [Ammonium, ammonium-phosphate]
[2]; 0.016 M ammonium, […] phosphate, pH 7.0, 28 mM MOPS
  Light Yield: 31.8 10^9counts
[2]; 0.031 M ammonium, 0.021 M phosphate, pH 7.0, 28 mM MOPS
  Light Yield: 43.7 10^9counts
[2]; 0.063 M ammonium, 0.043 M phosphate, pH 7.0, 28 mM MOPS
  Light Yield: 69.3 10^9counts
[2]; 0.125 M ammonium, 0.088 M phosphate, pH 7.0, 28 mM MOPS
  Light Yield: 83.2 10^9counts
[2]; 0.25 M ammonium, 0.175 M phosphate, pH 7.0, 28 mM MOPS
  Light Yield: 88.9 10^9counts
[2]; 0.5 M ammonium, 0.35 M phosphate, pH 7.0, 28 mM MOPS
  Light Yield: 113.1 10^9counts
[2]; 1.0 M ammonium, 0.7 M phosphate, pH 7.0, 28 mM MOPS
  Light Yield: 80.7 10^9counts
[2]; 2.0 M ammonium, 1.4 M phosphate, pH 7.0, 28 mM MOPS
  Light Yield: 44.6 10^9counts
[2]; with 350 mM of phosphate
  concentration up to which light yield increases: 500 mM

## O=S(=O)(O)CCN(CCO)CCO [BES, N,N-bis(2-hydroxyethyl)-2-aminoethanesulfonic acid]
[3]
  pKa (D/° C.): (−0.016) D/° C.

## O=C(O)CN(CCO)CCO [Bicine, N,N-bis(2-hydroxyethyl)glycine]
[3]
  pKa (D/° C.): (−0.018) D/° C.

## O=S(=O)(O)CCCNC1CCCCC1 [CAPS, 3-(cyclohexylamino)-1-propanesulfonic acid]
[3]
  pKa (D/° C.): (0.032) D/° C.

## O=S(=O)(O)CCNC1CCCCC1 [CHES, 2-(cyclohexylamino)-1-ethanesulfonic acid]
[3]
  pKa at 20° C.: 9.55
  pKa (D/° C.): (−0.011) D/° C.

## CC(C)(COP(=O)(O)OP(=O)(O)OC[C@H]1O[C@@H](n2cnc3c(N)ncnc32)[C@H](O)[C@@H]1OP(=O)(O)O)[C@@H](O)C(=O)NCCC(=O)NCCS [CoA, coenzyme A]
[4]
  time for which increased light output is maintained: at least 60 seconds

## NCCO [Ethanolamine, ethanolamine]
[2]; 0.008 M ethanolamine, 0.004 M phosphate, pH 7.0
  Light Yield: 41.6 10^9counts
[2]; 0.016 M ethanolamine, 0.008 M phosphate, pH 7.0
  Light Yield: 49.6 10^9counts
[2]; 0.031 M ethanolamine, 0.016 M phosphate, pH 7.0
  Light Yield: 59.2 10^9counts
[2]; 0.063 M ethanolamine, 0.031 M phosphate, pH 7.0
  Light Yield: 70.0 10^9counts
[2]; 0.125 M ethanolamine, 0.063 M phosphate, pH 7.0
  Light Yield: 96.2 10^9counts
[2]; 0.25 M ethanolamine, 0.125 M phosphate, pH 7.0
  Light Yield: 115.4 10^9counts
[2]; 0.5 M ethanolamine, 0.25 M phosphate, pH 7.0
  Light Yield: 124.8 10^9counts
[2]; 1.0 M ethanolamine, 0.5 M phosphate, pH 7.0
  Light Yield: 99.0 10^9counts
[2]
  final concentration up to which light yield increases: 0.5 M

## O=S(=O)(O)CCCN1CCN(CCO)CC1 [HEPPS (EPPS), 4-(2-hydroxyethyl)piperazine-1-propanesulfonic acid]
[3]
  pKa (D/° C.): −0.011 D/° C.

## O=S(=O)(O)CCCN1CCOCC1 [MOPS, 3-morpholinopropanesulfonic acid]
[3]
  pKa (D/° C.): −0.011 D/° C.

## O=S(O)(O)=S [Na2S2O3, sodium-thiosulfate]
[2]; [10]
  Light Yield: 147.7 10^9counts

## O=S([O-])S(=O)[O-].[Na+].[Na+] [Na2S2O4, sodium-dithionite]
[5]
  Light Yield: 128.4 10^9counts

## O=S([O-])[O-].[Na+].[Na+] [Na2SO3, sodium-sulfite]
[2]; [10]
  Light Yield: 136.8 10^9counts

## O=S(=O)(O)CCCNC(CO)(CO)CO [TAPS, N-[tris(hydroxymethyl)methyl]-3-aminopropanesulfonic acid]
[3]
  pKa (D/° C.): (0.018) D/° C.

## O=C(O)CCP(CCC(=O)O)CCC(=O)O [TCEP, Tris(2-carboxyethyl) phosphine]
[2]; [10]
  Light Yield: 122.1 10^9counts

## O=C(O)CNC(CO)(CO)CO [Tricine, N-[tris(hydroxymethyl)methyl]-glycine]
[3]
  pKa (D/° C.): (−0.021) D/° C.

## CC(C)N [isopropylamine]
[6]
  pKa: 10.82

## Triton™ X-100
[7]
  greater light output over simple freeze-thaw lysis: ≤ 25 fold

## tris(hydroxymethyl)aminomethane
[8]
  effect on total luminescence: enhances total luminescence
[9]
  effect on total luminescence: inhibit total luminescence
[2]; 0.008 M Tris, 0.004 M phosphate, pH 7.0, 0-420 min
  Light Yield: 44.4 10^9counts
[2]; 0.016 M Tris, 0.008 M phosphate, pH 7.0, 0-420 min
  Light Yield: 52.9 10^9counts
[2]; 0.031 M Tris, 0.016 M phosphate, pH 7.0, 0-420 min
  Light Yield: 63.0 10^9counts
[2]; 0.063 M Tris, 0.031 M phosphate, pH 7.0, 0-420 min
  Light Yield: 80.4 10^9counts
[2]; 0.125 M Tris, 0.063 M phosphate, pH 7.0, 0-420 min
  Light Yield: 103.4 10^9counts
[2]; 0.25 M Tris, 0.125 M phosphate, pH 7.0, 0-420 min
  Light Yield: 126.8 10^9counts
[2]; 0.5 M Tris, 0.25 M phosphate, pH 7.0, 0-420 min
  Light Yield: 137.3 10^9counts
[2]; 1.0 M Tris, 0.5 M phosphate, pH 7.0, 0-420 min
  Light Yield: 123.8 10^9counts
[2]
  final concentration up to which light yield increases: 0.5 M

From US7951551B2, “Kits and reagents for luciferase detection assay system” (PerkinElmer Life and Analytical Sciences B.V., priority 2005, dated 2011)
